What was measured:
Assay in all cases: Test on herbicidal activity by foliar application
Format in all cases: in vivo
Conditions in all cases: foliar spray, 1 kg/ha, plants at 1-2 leaf stage in pots, evaluated 14 days after spraying
Setaria viridis = test system: Setaria viridis
Method: (§1) Test on Herbicidal Activity by Foliar Application: Herbicidal solutions of each test compounds, which were prepared by dissolving at predetermined concentrations such a wettable powder of the test compound as that described in the above Formulation Example, were sprayed at dosages of 1 kg/ha over foliar parts of Amaranthus retroflexus, Bidens pilosa, Sinapis arvensis, Stellaria media, Solanum nigrum, Abutilon theophrasti, Convolvulus arvensis, Matricaria chamomilla, Galium aparine, Veronica hederaefolia, and Setaria viridis (each test plant is 1-2 leaf stage) which were grown in pots. 14 days latter after spraying, its herbicidal activity was evaluated in accordance with the below-described system. Herbicidal Activity 1: less than 30% inhibition 2: 30% or more-50% inhibition 3: 50% or more-70% inhibition 4: 70% or more-90% inhibition 5: 90% or more inhibition

Galium aparine = test system: Galium aparine
Method: as §1

Sinapis arvensis = test system: Sinapis arvensis
Method: as §1

Veronica hederaefolia = test system: Veronica hederaefolia
Method: as §1

Bidens pilosa = test system: Bidens pilosa
Method: as §1

Convolvulus arvensis = test system: Convolvulus arvensis
Method: as §1

Amaranthus retroflexus = test system: Amaranthus retroflexus
Method: as §1

Solanum nigrum = test system: Solanum nigrum
Method: as §1

Stellaria media = test system: Stellaria media
Method: as §1

Matricaria chamomilla = test system: Matricaria chamomilla
Method: as §1

Abutilon theophrasti = test system: Abutilon theophrasti
Method: as §1

Row | SMILES | Herbicidal activity, Setaria viridis (Setaria viridis) | Herbicidal activity, Galium aparine (Galium aparine) | Herbicidal activity, Sinapis arvensis (Sinapis arvensis) | Herbicidal activity, Veronica hederaefolia (Veronica hederaefolia) | Herbicidal activity, Bidens pilosa (Bidens pilosa) | Herbicidal activity, Convolvulus arvensis (Convolvulus arvensis) | Herbicidal activity, Amaranthus retroflexus (Amaranthus retroflexus) | Herbicidal activity, Solanum nigrum (Solanum nigrum) | Herbicidal activity, Stellaria media (Stellaria media) | Herbicidal activity, Matricaria chamomilla (Matricaria chamomilla) | Herbicidal activity, Abutilon theophrasti (Abutilon theophrasti)
1 | COc1cc(Cl)cc(C(=O)NS(=O)(=O)c2c(Cl)cccc2Cl)n1 [Compound I-581, N-[(2,6-Dichlorophenyl)sulfonyl]-4-chloro-6-methoxy-2-pyridinecarboxamide] | 4 (70% or more-90% inhibition) | 5 (90% or more inhibition) | 5 (90% or more inhibition) | 4 (70% or more-90% inhibition) | 5 (90% or more inhibition) | 4 (70% or more-90% inhibition) | 5 (90% or more inhibition) | 5 (90% or more inhibition) | 5 (90% or more inhibition) | 5 (90% or more inhibition) | 4 (70% or more-90% inhibition)
2 | COc1cc(Cl)nc(C(=O)NS(=O)(=O)c2cccc(Cl)c2Cl)c1 [Compound I-345, N-[(2,3-Dichlorophenyl)sulfonyl]-6-chloro-4-methoxypyridine-2-carboxamide] | 2 (30% or more-50% inhibition) | 4 (70% or more-90% inhibition) | 5 (90% or more inhibition) | 3 (50% or more-70% inhibition) | 5 (90% or more inhibition) | 5 (90% or more inhibition) | 3 (50% or more-70% inhibition) | 5 (90% or more inhibition) | 4 (70% or more-90% inhibition) | 4 (70% or more-90% inhibition) | 2 (30% or more-50% inhibition)
3 | COc1ccc(C(=O)NS(=O)(=O)c2c(Cl)cccc2Cl)nc1Cl [Compound I-618, N-[(2,6-Dichlorophenyl)sulfonyl]-6-chloro-5-methoxy-2-pyridinecarboxamide] | 2 (30% or more-50% inhibition) | 4 (70% or more-90% inhibition) | 5 (90% or more inhibition) | 5 (90% or more inhibition) | 5 (90% or more inhibition) | 3 (50% or more-70% inhibition) | 2 (30% or more-50% inhibition) | 5 (90% or more inhibition) | 5 (90% or more inhibition) | 5 (90% or more inhibition) | 5 (90% or more inhibition)
4 | COc1ccc(C(=O)NS(=O)(=O)c2ccccc2S(=O)(=O)N(C)C)nc1Cl [Compound I-888, N-[[2-(N,N-Dimethylaminosulfonyl)phenyl]-sulfonyl]-6-chloro-5-methoxy-2-pyridinecarboxamide] | 5 (90% or more inhibition) | 5 (90% or more inhibition) | 5 (90% or more inhibition) | 4 (70% or more-90% inhibition) | 5 (90% or more inhibition) | 5 (90% or more inhibition) | 5 (90% or more inhibition) | 5 (90% or more inhibition) | 5 (90% or more inhibition) | 5 (90% or more inhibition) | 5 (90% or more inhibition)
5 | COc1ccc(C(=O)NS(=O)(=O)c2ccccc2S(=O)(=O)N(C)C)nc1 [Compound I-864] | 4 (70% or more-90% inhibition) | 4 (70% or more-90% inhibition) | 5 (90% or more inhibition) | 4 (70% or more-90% inhibition) | 5 (90% or more inhibition) | 3 (50% or more-70% inhibition) | 3 (50% or more-70% inhibition) | 4 (70% or more-90% inhibition) | 5 (90% or more inhibition) | 5 (90% or more inhibition) | 5 (90% or more inhibition)
6 | COC(=O)c1ccccc1S(=O)(=O)NC(=O)c1cc(Cl)cc(OC)n1 [Compound I-221, 2-[[[(4-Chloro-6-methoxypyridin-2-yl)carbonyl]-amino]sulfonyl]benzoic Acid Methyl Ester] | 3 (50% or more-70% inhibition) | 5 (90% or more inhibition) | 5 (90% or more inhibition) | 4 (70% or more-90% inhibition) | 4 (70% or more-90% inhibition) | 4 (70% or more-90% inhibition) | 5 (90% or more inhibition) | 5 (90% or more inhibition) | 4 (70% or more-90% inhibition) | 2 (30% or more-50% inhibition) | 4 (70% or more-90% inhibition)
7 | COc1ccc(C(=O)NS(=O)(=O)c2ccccc2S(=O)(=O)N(C)C)nc1[N+](=O)[O-] [Compound I-858, N-[[2-(N,N-Dimethylaminosulfonyl)phenyl]-sulfonyl]-5-methoxy-6-nitro-2-pyridinecarboxamide] | 5 (90% or more inhibition) | 5 (90% or more inhibition) | 5 (90% or more inhibition) | 4 (70% or more-90% inhibition) | 5 (90% or more inhibition) | 5 (90% or more inhibition) | 5 (90% or more inhibition) | 5 (90% or more inhibition) | 5 (90% or more inhibition) | 4 (70% or more-90% inhibition) | 5 (90% or more inhibition)
8 | COC(=O)c1ccccc1S(=O)(=O)NC(=O)c1cc(OC)cc(Cl)n1 [Compound I-255, 2-[[[(6-Chloro-4-methoxypyridin-2-yl)carbonyl]-amino]sulfonyl]benzoic Acid Methyl Ester] | 4 (70% or more-90% inhibition) | 5 (90% or more inhibition) | 5 (90% or more inhibition) | 5 (90% or more inhibition) | 5 (90% or more inhibition) | 5 (90% or more inhibition) | 4 (70% or more-90% inhibition) | 5 (90% or more inhibition) | 5 (90% or more inhibition) | 5 (90% or more inhibition) | 5 (90% or more inhibition)
9 | COc1ccc(C(=O)NS(=O)(=O)c2ccccc2OC(F)(F)F)nc1[N+](=O)[O-] [Compound I-778] | 3 (50% or more-70% inhibition) | 4 (70% or more-90% inhibition) | 5 (90% or more inhibition) | 2 (30% or more-50% inhibition) | 5 (90% or more inhibition) | 5 (90% or more inhibition) | 4 (70% or more-90% inhibition) | 5 (90% or more inhibition) | 3 (50% or more-70% inhibition) | 5 (90% or more inhibition) | 5 (90% or more inhibition)
10 | COc1ccc(C(=O)NS(=O)(=O)c2ccccc2OC(F)(F)F)nc1Cl [Compound I-798, N-[(2-Trifluoromethoxyphenyl)sulfonyl]-6-chloro-5-methoxy-2-pyridinecarboxamide] | 3 (50% or more-70% inhibition) | 5 (90% or more inhibition) | 5 (90% or more inhibition) | 5 (90% or more inhibition) | 5 (90% or more inhibition) | 4 (70% or more-90% inhibition) | 5 (90% or more inhibition) | 5 (90% or more inhibition) | 5 (90% or more inhibition) | 5 (90% or more inhibition) | 5 (90% or more inhibition)

— patent US6610853B1, “N-(phenylsulfonyl)picolinamide derivatives, process for producing the same, and herbicide” (Kureha Kagaku Kogyo K.K., priority 2000, dated 2003)
